According to patent US7163952B2, “Azole compound and medicinal use thereof” (Japan Tobacco Inc., priority 2001, dated 2007):
Structures can show the parent of a compound that is named as a salt.

| Structure (SMILES) | melting point |
| --- | --- |
| O=C(O)CN(c1ccc(C(=O)O)cc1)c1nc(-c2ccc(NC(=O)C3CCCCC3)cc2)cs1 [Example 14, 4-(N-carboxymethyl-N-(4-(4-(cyclohexanecarbonylamino)phenyl)-2-thiazolyl)amino)benzoic acid] | 210 °C (dec.) |
| CN(Cc1ccc(C(=O)O)cc1)c1nc(-c2ccc3[nH]c(-c4ccc(C5CCCCC5)cc4)nc3c2)cs1 [Example 231, 4-((N-(4-(2-(4-cyclohexylphenyl)-1H-benzoimidazol-5-yl)-2-thiazolyl)-N-methylamino)methyl)benzoic acid] | 250 °C |
| CC(C)c1ccc(CNc2ccc(-c3csc(N(CC4CCCCC4)c4ccc(C(=O)O)cc4)n3)cc2)cc1 [Example 130, 4-(N-cyclohexylmethyl-N-(4-(4-(4-isopropylbenzylamino)phenyl)-2-thiazolyl)amino)benzoic acid] | 200 to 202 °C |
| CN(Cc1ccc(C(=O)O)cc1)c1nc(-c2ccc(CN3CCN(Cc4ccccc4)CC3)cc2)cs1 [Example 240, 4-((N-(4-(4-(4-benzyl-1-piperazinylmethyl)phenyl)-2-thiazolyl)-N-methylamino)methyl)benzoic acid] | 130 to 135 °C |
| O=C(O)c1ccc(N(CCC2CCCCC2)c2nc(-c3cc(Cl)ccc3OCc3ccccc3)cs2)cc1 [Example 152, 4-(N-(4-(2-benzyloxy-5-chlorophenyl)-2-thiazolyl)-N-(2-cyclohexylethyl)amino)benzoic acid] | 160 to 163 °C |
| CN(CCCCc1ccccc1)c1ccc(-c2csc(N(C)Cc3ccc(C(=O)O)cc3)n2)cc1 [Example 222, 4-((N-methyl-N-(4-(4-(N-methyl-N-(4-phenylbutyl)amino)phenyl)-2-thiazolyl)amino)methyl)benzoic acid] | 146 to 147 °C |
| CN(Cc1ccc(C2CCCCC2)cc1)c1ccc(-c2csc(NCc3ccc(C(=O)O)cc3)n2)cc1 [Example 247, 4-((4-(4-(N-(4-cyclohexylbenzyl)-N-methylamino)phenyl)-2-thiazolylamino)methyl)benzoic acid] | 209 °C (dec.) |
| COc1ccc(OCc2ccc(C(F)(F)F)cc2)c(-c2csc(N(CCC3CCCCC3)c3ccc(C(=O)O)cc3)n2)c1 [Example 170, 4-(N-(2-cyclohexylethyl)-N-(4-(5-methoxy-2-(4-trifluoromethylbenzyloxy)phenyl)-2-thiazolyl)amino)benzoic acid] | 104 to 107 °C |
| O=C(O)c1ccc(N(CC2CCCCC2)c2nc(-c3ccc(NCc4ccc(Cl)c(Cl)c4)cc3)cs2)cc1 [Example 129, 4-(N-cyclohexylmethyl-N-(4-(4-(3,4-dichlorobenzylamino)phenyl)-2-thiazolyl)amino)benzoic acid] | 187 to 189 °C |
| O=C(O)c1cccc(N(CCC2CCCCC2)c2nc(-c3cc(Cl)ccc3OCc3ccccc3)cs2)c1 [Example 172, 3-(N-(4-(2-benzyloxy-5-chlorophenyl)-2-thiazolyl)-N-(2-cyclohexylethyl)amino)benzoic acid] | 170 to 171 °C |
| CN(Cc1ccc(C2CCCC(=O)C2)cc1)c1ccc(-c2csc(N(C)Cc3ccc(C(=O)O)cc3)n2)cc1 (stereo not drawn) [Example 207, 4-((N-methyl-N-(4-(4-(N-methyl-N-(4-(3-oxocyclohexyl)benzyl)amino)phenyl)-2-thiazolyl)amino)methyl)benzoic acid] | 189 to 191 °C |
| CC(C)N(c1ccc(C(=O)O)cc1)c1nc(-c2ccc(NC(=O)CCCC3CCCCC3)cc2)cs1 [Example 46, 4-(N-(4-(4-(4-cyclohexylbutyrylamino)phenyl)-2-thiazolyl)-N-isopropylamino)benzoic acid] | 230 °C (dec.) |
| O=C(O)c1ccc(N(Cc2ccc(C(F)(F)F)cc2)c2nc(-c3cc(Cl)ccc3OCc3ccccc3)cs2)cc1 [Example 159, 4-(N-(4-(2-benzyloxy-5-chlorophenyl)-2-thiazolyl)-N-(4-trifluoromethylbenzyl)amino)benzoic acid] | 194 to 196 °C |
| O=C(O)c1ccc(Cc2nc(-c3ccc(NC(=O)c4ccc(C5CCCCC5)cc4)cc3)cs2)cc1 [Example 68, 4-(4-(4-(4-cyclohexylbenzoylamino)phenyl)-2-thiazolylmethyl)benzoic acid] | 230 °C (dec.) |
| CN(c1ccc(C(=O)O)cc1)c1nc(-c2ccc(NC(=O)c3ccc(C(C)(C)C)cc3)cc2)cs1 [Example 20, 4-(N-(4-(4-(4-tert-butylbenzoylamino)phenyl)-2-thiazolyl)-N-methylamino)benzoic acid] | 250 °C (dec.) |
| O=C(O)c1ccc(C2(c3nc(-c4ccc(OCc5ccc(C6CCCCC6)cc5)cc4)cs3)CCCC2)cc1 [Example 91, 4-(1-(4-(4-(4-cyclohexylbenzyloxy)phenyl)-2-thiazolyl)cyclopentyl)benzoic acid] | 248 to 251 °C |
| CN(Cc1ccc(C(=O)O)cc1)c1nc(-c2ccc(N(C)C[C@H]3CC[C@H](c4ccccc4)CC3)cc2)cs1 [Example 213, trans-4-((N-methyl-N-(4-(4-(N-methyl-N-(4-phenylcyclohexylmethyl)amino)phenyl)-2-thiazolyl)amino)methyl)benzoic acid] | 191 to 193 °C |
| CCCCN(c1ccc(C(=O)O)cc1)c1nc(-c2cc(Cl)ccc2OCc2ccc(C(F)(F)F)cc2)cs1 [Example 182, 4-(N-butyl-N-(4-(5-chloro-2-(4-trifluoromethylbenzyloxy)phenyl)-2-thiazolyl)amino)benzoic acid] | 216 to 218 °C |
| CC(C)N(c1nc(-c2ccc(NC(=O)c3ccc(C4CCCCC4)cc3)cc2)cs1)c1c(F)c(F)c(C(=O)O)c(F)c1F [Example 52, 4-(N-(4-(4-(4-cyclohexylbenzoylamino)phenyl)-2-thiazolyl)-N-isopropylamino)-2,3,5,6-tetrafluorobenzoic acid] | 153 to 157 °C |
| CCN(c1ccc(C(=O)O)cc1)c1nc(-c2ccc(NC(=O)c3ccccc3)cc2)cs1 [Example 7, 4-(N-(4-(4-benzoylaminophenyl)-2-thiazolyl)-N-ethylamino)benzoic acid] | 250 °C (dec.) |
| CN(c1ccc(C(=O)O)cc1)c1nc(-c2ccc(NCc3ccc(C4CCCCC4)cc3)cc2)cs1 (as salt: hydrochloride) [Example 258, 4-(N-(4-(4-(4-cyclohexylbenzylamino)phenyl)-2-thiazolyl)-N-methylamino)benzoic acid hydrochloride] | 234 to 236 °C |
| CC(C)N(c1ccc(OCC(=O)O)cc1)c1nc(-c2ccc(NC(=O)c3ccc(N4CCCCC4)cc3)cc2)cs1 [Example 53, (4-(N-isopropyl-N-(4-(4-(4-piperidinobenzoylamino)phenyl)-2-thiazolyl)amino)phenoxy)acetic acid] | 220 °C (dec.) |
| O=C(O)CCCN(c1ccc(C(=O)O)cc1)c1nc(-c2ccc(OCc3ccc(C4CCCCC4)cc3)cc2)cs1 [Example 26, 4-(N-(3-carboxypropyl)-N-(4-(4-(4-cyclohexylbenzyloxy)phenyl)-2-thiazolyl)amino)benzoic acid] | 230 °C (dec.) |
| CN(c1ccc(C(=O)O)cc1)c1nc(-c2ccc(NCc3ccc(C4CCCCC4)cc3)cc2)cs1.CS(=O)(=O)O | 231 to 233 °C |
| O=C(O)c1ccc(N(CCOc2ccccc2)c2nc(-c3cc(Cl)ccc3OCc3ccccc3)cs2)cc1 [Example 153, 4-(N-(4-(2-benzyloxy-5-chlorophenyl)-2-thiazolyl)-N-(2-phenoxyethyl)amino)benzoic acid] | 152 to 155 °C |
| O=C(O)c1ccc(N(CCC2CCCCC2)c2nc(-c3nc4ccc(OCc5ccc(Cl)c(Cl)c5)cc4o3)cs2)cc1 [Example 184, 4-(N-(2-cyclohexylethyl)-N-(4-(6-(3,4-dichlorobenzyloxy)-2-benzooxazolyl)-2-thiazolyl)amino)benzoic acid] | 195 to 197 °C |
| O=C(O)c1ccc(Nc2nc(-c3ccc(OCc4ccc(C5CCCCC5)cc4)cc3)cs2)c(OCCC2CCCCC2)c1 [Example 72, 4-(4-(4-(4-cyclohexylbenzyloxy)phenyl)-2-thiazolylamino)-3-(2-cyclohexylethoxy)benzoic acid] | 230 °C (dec.) |
| CC(C)N(Cc1ccc(C(=O)O)cc1)c1nc(-c2ccc(NC(=O)c3ccc(-c4ccccc4)cc3)cc2)cs1 [Example 64, 4-((N-(4-(4-(4-biphenylcarbonylamino)phenyl)-2-thiazolyl)-N-isopropylamino)methyl)benzoic acid] | 250 °C (dec.) |
| CC(C)N(c1ccc(OCC(=O)O)cc1)c1nc(-c2ccc(NC(=O)c3ccc(C4CCCCC4)cc3)cc2)cs1 [Example 51, (4-(N-(4-(4-(4-cyclohexylbenzoylamino)phenyl)-2-thiazolyl)-N-isopropylamino)phenoxy)acetic acid] | 240 °C (dec.) |
| O=C(O)c1ccc(N(CC2CCCCC2)c2nc(-c3ccc(OCc4ccc(C5CCCCC5)cc4)cc3)cs2)cc1 [Example 25, 4-(N-(4-(4-(4-cyclohexylbenzyloxy)phenyl)-2-thiazolyl)-N-cyclohexylmethylamino)benzoic acid] | 230 °C (dec.) |
